The record followed here is patent US11033518B2, “Pharmaceutical composition containing niclosamide for treating axin-GSK3 interaction-related diseases” (BAOBAB PHARM CO., LTD., priority 2017, dated 2021).

The test system of experiment [1] is colorectal cancer cell lines HCT116, SW480 and DLD-1. In words: Trypan blue cell viability / apoptosis of colorectal cancer cells. The class given is cell-based. The conditions noted are these: 48 hours, trypan blue assay. The procedure: 1×10^5 cells of colorectal cancer cell lines HCT116, SW480 and DLD-1 cell (ATCC, American Type Culture Collection) were cultured overnight in a 6-well plate, and then were washed with PBS, and were cultured in a culture medium treated with niclosamide by each concentration (0 μM, 0.125 μM, 0.25 μM, 0.5 μM, 1 μM, 2 μM, 5 μM and 10 μM) for 48 hours. Apoptosis was measured with trypan blue assay and cell viability was calculated by an equation [1−(number of dead cells/total number of cells)].

Experiment [2] relates to Snail, E-cadherin. In words: Snail western blot and E-cadherin dual luciferase assay in colorectal cancer cells. The class given is cell-based. The conditions noted are these: as concentration increased. From the text: In order to confirm whether niclosamide induced snail-mediated EMT recovery, beta-catenin (β-catenin) expression and TCF/LEF reporter (Topflash) activity change, and Snail and E-cadherin protein expression were confirmed.
Through the western blot, Snail expression change was confirmed, and through the dual luciferase assay system, the expression of E-cadherin protein was confirmed.

The test system of experiment [3] is Snail, E-cadherin. In words: Immunoblot of Snail and E-cadherin in SW480 xenograft tumor. The class given is in vivo, mice. The settings on record: 50 mg/kg, 200 mg/kg intraperitoneally for 3 days. The procedure: In order to investigate in vivo MoA of niclosamide controlling Snail-mediated EMT, through xenografts, the change of protein amount of Snail and E-cadherin in the tumor by niclosamide treatment was confirmed. The colorectal cancer cell line, SW480 cells (5×10^6) were subcutaneously injected to nude mice. When the tumor size became 500 mm^3 on average, mice were randomly divided into 3 groups, and a vehicle or niclosamide (50 mg/kg, 200 mg/kg) was intraperitoneally injected for 3 days. After sacrificing mice, the tumor tissue part was separated using Pro-prep protein extraction solution (#17081, Intron), and the amount of protein of Snail and E-cadherin in the tumor sample was measured by immunoblot assay.

A further experiment deals with T1, Axin2-GSK3 complex (Homo sapiens, UniProt P49841).
T1 construct: Triton X-100 lysates of total cells; endogenous in cells; host or cells: MCF-7 cells; GSK3 is endogenous; His-tagged Axin2 comes from a transfected doxycycline-inducible vector
In words: Immunoprecipitation of His-tagged Axin2 from MCF-7 cell lysates. The class given is binding. The conditions noted are these: total cell lysates of MCF-7 expressing His-tagged Axin2. The procedure:
In order to confirm whether niclosamide could inhibit Axin-GSK3 interaction, to perform an immunoprecipitation experiment under the condition with or without niclosamide, cell lysates having full-length Axin2 were investigated.
The immunoprecipitation assay was performed as follows (Yook J I, et al. Nat Cell Biol. 8:1398-1406, 2006).
The doxycycline-induced His-tagged Axin2 expression vector was transformed to MCF-7 cell (ATCC, American Type Culture Collection) and was cultured, and was reacted by treating […] (Invitrogen) and niclosamide of each concentration to Triton X-100 lysates of total cells. The protein recovered in beads was subjected to SDS-PAGE, followed by immunoblot analysis, and a control group of 1/20 volume was added.

The target in experiment [4] is T2, recombinant GSK3 beta - Axin peptide interaction (Homo sapiens, UniProt P49841).
T2 construct: made in house; host or cells: Sf9 insect cells (GSK3 beta); The peptide was synthesized by Peptron
Description: Competitive binding of FITC-linked 19-mer Axin peptide to recombinant GSK3 (fluorometry). The conditions noted are these: 2 hours, Ni-Ti beads. From the text:
Since it was disclosed that the hydrophobic residues of alpha helix of Axin were accumulated to the hydrophobic groove formed by the C-terminal loop of GSK3, in the result of structural analysis of Axin-GSK3 binding announced in the past (Dajani R et al., EMBO J. 22:494-501, 2003), the present inventors hypothesized that niclosamide binds to the hydrophobic groove of GSK3 and interferes with the function of Axin, and in order to confirm it, they designed in vitro analysis to confirm competitive inhibition by niclosamide of recombinant GSK3 which binds to a 19-mer FITC-linked Axin peptide.
His-tagged recombinant GSK3 beta was obtained from sf9 insect cells by the known method (Lee D G, et al. Nat Commun. 5:4423, 2014). The FITC-linked 19-mer Axin peptide known to bind to GSK3 as amphipathic alpha-helix (Axin1, 383-401, VEPQKFAEELIHRLEAVQR) was chemically synthesized (Peptron). In order to confirm competitive binding of the synthesized Axin peptide and niclosamide, His-tagged recombinant GSK3 and […] were treated with niclosamide for 2 hours, and were washed with PBS 3 times and then quantitative fluorometry was performed using […]. The fluorescence strength was shown in proportion to the fluorescence strength obtained in the negative control group from 3 times of experiments.

A further experiment relates to beta-catenin (β-catenin). In words: beta-catenin western blot in colorectal cancer cells. The class given is cell-based. The settings on record: 0, 0.125, 0.25, 0.5 nM, 24 hours; as concentration increased. How it is done:
At first, after treating niclosamide of nM units at concentrations of 0 nM, 0.125 nM, 0.25 nM and 0.5 nM to colorectal cancer cells for 24 hours, the beta-catenin (β-catenin) activity and TCF/LEF reporter (Topflash) activity of colorectal cancer cells were measured.
For beta-catenin, western blot was performed using β-catenin (#610154, BD Transduction, 1:5,000) antibody, and as a result, as shown in B (left) of FIG. 1, expression of beta-catenin in colorectal cancer cells was reduced as the concentration of treated niclosamide was increased.
(A western blot detects proteins with antibodies after separation by electrophoresis.)

The test system of experiment [5] is HCT116, SW480 and DLD-1 cells. Description: Cell mobility of colorectal cancer cells through basement membrane. The class given is cell-based. The conditions noted are these: nM level, 48 hours. The procedure:
At first, the effect on the cell mobility of colorectal cancer cells of niclosamide was confirmed. Colorectal cancer cell lines HCT116, SW480 and DLD-1 cells were cultured under the condition with or without niclosamide for 48 hours, and then the upper part of the membrane was rubbed with a cotton swab and the number of movements of cells inserted into the basement membrane was stained with 0.25% crystal violet and counted. Cells were counted in five random fields.

T2 sequence (P49841 whole entry): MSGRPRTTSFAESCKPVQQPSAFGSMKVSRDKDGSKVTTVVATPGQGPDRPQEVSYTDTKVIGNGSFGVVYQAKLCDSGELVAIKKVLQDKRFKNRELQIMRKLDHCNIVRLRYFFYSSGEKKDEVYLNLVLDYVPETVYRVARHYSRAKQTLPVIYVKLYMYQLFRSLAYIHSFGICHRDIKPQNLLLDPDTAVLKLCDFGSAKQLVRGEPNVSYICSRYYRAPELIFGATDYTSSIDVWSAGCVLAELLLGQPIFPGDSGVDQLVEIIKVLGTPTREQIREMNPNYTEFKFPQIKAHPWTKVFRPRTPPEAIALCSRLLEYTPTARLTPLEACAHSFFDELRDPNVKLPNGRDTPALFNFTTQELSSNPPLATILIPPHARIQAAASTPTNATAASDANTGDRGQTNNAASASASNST
T1 sequence (P49841 whole entry, one chain of several): as the sequence (P49841 whole entry) above

As for `O=C(Nc1ccc([N+](=O)[O-])cc1Cl)c1cc(Cl)ccc1O` [niclosamide], the apoptosis result in experiment [1] (nM concentration) is given as “did not occur”. The “death of colorectal cells” value in experiment [1] (μM concentration level) is on record as “induced death”. In addition, in the experiment with Snail, E-cadherin [2] (dual luciferase assay), the “E-cadherin (promoter activity)” value is “increased”. In the experiment on Snail, E-cadherin [2] (western blot), the “expression of Snail” value is “reduced”. Also, in the experiment on Snail, E-cadherin [3], the “amount of E-cadherin in tumor” value is reported as “increased” and the “presence of Snail in tumor” value is “reduced”. Moreover, the “GSK3 which bound to Axin2” value on Axin2-GSK3 complex is “reduced”. Besides, the “interaction between recombinant GSK3 and synthesized Axin peptide” value in experiment [4] was “inhibited in proportion to the administration concentration”. The expression of beta-catenin entry in the experiment with beta-catenin (β-catenin) was “reduced”. Besides, the “potential of movements of colorectal cancer cells” value in experiment [5] is “largely reduced”.
